How the values were obtained:
aromatase = target: T1, aromatase (Rattus norvegicus, UniProt P22443); assay: biochemical; conditions: rat ovarian microsomes; substrate (androstenedione) concentration 0.1 μM; inhibitors tested between 0.005 and 10 μM
T1 sequence (P22443 1-508): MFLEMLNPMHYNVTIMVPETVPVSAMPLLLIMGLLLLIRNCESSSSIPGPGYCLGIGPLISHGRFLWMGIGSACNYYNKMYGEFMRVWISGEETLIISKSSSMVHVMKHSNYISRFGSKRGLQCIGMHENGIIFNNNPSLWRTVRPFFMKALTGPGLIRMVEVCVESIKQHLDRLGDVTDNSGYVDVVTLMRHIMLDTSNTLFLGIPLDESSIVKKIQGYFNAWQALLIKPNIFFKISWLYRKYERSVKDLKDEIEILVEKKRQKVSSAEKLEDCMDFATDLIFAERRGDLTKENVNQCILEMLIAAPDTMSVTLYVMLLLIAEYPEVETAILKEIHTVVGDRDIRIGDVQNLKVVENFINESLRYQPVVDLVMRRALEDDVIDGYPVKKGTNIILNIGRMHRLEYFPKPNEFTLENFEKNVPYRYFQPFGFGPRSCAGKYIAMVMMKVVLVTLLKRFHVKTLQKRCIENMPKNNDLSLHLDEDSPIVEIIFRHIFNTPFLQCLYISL
Description: In this test system, ovarian microsomes are obtained from rats treated with pregnant mares serum gonadotropin. Test compounds are added to reaction vials containing 0.1 μM 4-androstene-3,17-dione, 100,000 dpm 1,2[^3 H]-androstenedione, the microsomes and a NADPH generating system.

breast cancer = conditions: known aromatase inhibitors; Cancer Research, Vol. 42, Suppl. 8:3261s (1982); cited from earlier work

SMILES | EC50 (aromatase) [nM] | effect in treatment of breast cancer (breast cancer)
c1ccc(C(c2ccccc2)(c2ccns2)n2cncn2)cc1 [Example 2, 5-(Diphenyl-1H-1,2,4-triazol-1-ylmethyl)-isothiazole] | 257 | 
Clc1ccc(C(c2ccc(Cl)cc2)(c2ccns2)n2cncn2)cc1 [Example 7, 1-[Bis(4-chlorophenyl)-5-isothiazolemethyl]-1H-1,2,4-triazole] | 51 | 
CCC1(c2ccc(N)cc2)CCC(=O)NC1=O (stereo not shown) [aminoglutethimide] |  | beneficial effect
C[C@]12C=CC(=O)C=C1CC[C@@H]1[C@@H]2CC[C@]2(C)OC(=O)CC[C@@H]12 [testolactone] |  | beneficial effect

Source: patent publication US4602025A, “Aromatase inhibitors” (Eli Lilly and Company, priority 1984, dated 1986)
